Results as given in article PMC10177510, “A Multicenter, Open-Label, Phase I/II Study of FN-1501 in Patients with Advanced Solid Tumors” (Cancers, 2023).

Test system: advanced solid tumors
Assay: Anti-tumor activity in patients (RECIST best response, PFS, OS)
Format: in vivo, human
Description: Among 64 pts enrolled in the trial, 16 failed screening and 48 (75%) were treated with FN-1501 at one of the dose levels tested. Eligible pts were ≥18 years of age with (a) relapsed or refractory AML that had exhausted or was ineligible for therapeutic options, or with ≥5% blasts in the bone marrow according to World Health Organization (WHO) 2016 criteria; or (b) solid tumors evaluable per RECIST v1.1 that had exhausted (or were ineligible for) therapeutic options likely to convey clinical benefit. Other inclusion criteria included Eastern Cooperative Oncology Group (ECOG) performance status (PS) of <2 and life expectancy ≥3 months. Pts with a clinically controlled central nervous system (CNS) tumor or metastasis and adequate organ function were eligible to participate. Ongoing use of strong CYP3A inhibitors or inducers was exclusionary unless participants were willing and able to change to use of an equivalent medication without this profile. Other exclusion criteria included current or recent major surgical procedures, anticancer therapy (chemotherapy, immunotherapy), biologic, live virus vaccine, or investigational therapy within 21 days prior to initiation of the study treatment. For patients in the AML cohort, acute promyelocytic leukemia (APML), chronic myelogenous leukemia in blast crisis (BCR-ABL), or active CNS leukemia were exclusionary.
Descriptive statistics were used for all safety, PK, and efficacy parameters. Data were summarized using descriptive statistics (number of pts, mean, median, standard deviation, minimum, and maximum) for continuous variables and using frequencies and percentages for discrete variables. Time-to-event variables were summarized using Kaplan–Meier methods and figures for the estimated median time.

CN1CCN(Cc2ccc(NC(=O)c3[nH]ncc3Nc3ncnc4[nH]ccc34)cc2)CC1 [FN-1501]
3 (100): Stable Disease, best RECIST response, n (%) (15 mg/day, N = 3, ITT) | Stable Disease, best RECIST response, n (%) (30 mg/day, N = 3, ITT)
0.0%: DCR (2.5 mg/day, N = 4, ITT) | ORR (2.5 mg/day, N = 4, ITT) | Progression Free Survival Rate at 3 months (2.5 mg/day, N = 4, ITT) | Progression Free Survival Rate at 6 months (2.5 mg/day, N = 4, ITT) | Progression Free Survival Rate at 9 months (2.5 mg/day, N = 4, ITT) | Progression Free Survival Rate at 12 months (2.5 mg/day, N = 4, ITT) | DCR (5 mg/day, N = 3, ITT) | Landmark Progression Free Survival Rate at 6 months (Table S6, Overall Survival) (5 mg/day, N = 3, ITT) | Landmark Progression Free Survival Rate at 9 months (Table S6, Overall Survival) (5 mg/day, N = 3, ITT) | Landmark Progression Free Survival Rate at 12 months (Table S6, Overall Survival) (5 mg/day, N = 3, ITT) | ORR (5 mg/day, N = 3, ITT) | Progression Free Survival Rate at 3 months (5 mg/day, N = 3, ITT) | Progression Free Survival Rate at 6 months (5 mg/day, N = 3, ITT) | Progression Free Survival Rate at 9 months (5 mg/day, N = 3, ITT) | Progression Free Survival Rate at 12 months (5 mg/day, N = 3, ITT) | ORR (10 mg/day, N = 5, ITT) | Progression Free Survival Rate at 6 months (10 mg/day, N = 5, ITT) | Progression Free Survival Rate at 9 months (10 mg/day, N = 5, ITT) | Progression Free Survival Rate at 12 months (10 mg/day, N = 5, ITT) | ORR (15 mg/day, N = 3, ITT) | Progression Free Survival Rate at 9 months (15 mg/day, N = 3, ITT) | Progression Free Survival Rate at 12 months (15 mg/day, N = 3, ITT) | ORR (22.5 mg/day, N = 4, ITT) | ORR (30 mg/day, N = 3, ITT) | Progression Free Survival Rate at 6 months (30 mg/day, N = 3, ITT) | Progression Free Survival Rate at 9 months (30 mg/day, N = 3, ITT) | Progression Free Survival Rate at 12 months (30 mg/day, N = 3, ITT) | Progression Free Survival Rate at 6 months (40 mg/day, N = 4, ITT) | Progression Free Survival Rate at 9 months (40 mg/day, N = 4, ITT) | Progression Free Survival Rate at 12 months (40 mg/day, N = 4, ITT)
33.3%: Progression Free Survival Rate at 6 months (15 mg/day, N = 3, ITT) | Progression Free Survival Rate at 3 months (40 mg/day, N = 4, ITT)
2.0 months: Median overall survival (2.5 mg/day, N = 4, ITT)
2: Progressive Disease, best RECIST response, n (%) (5 mg/day, N = 3, ITT) | Progressive Disease, best RECIST response, n (%) (10 mg/day, N = 5, ITT)
0: Complete Response, best RECIST response, n (%) (2.5 mg/day, N = 4, ITT) | Partial Response, best RECIST response, n (%) (2.5 mg/day, N = 4, ITT) | Stable Disease, best RECIST response, n (%) (2.5 mg/day, N = 4, ITT) | Complete Response, best RECIST response, n (%) (5 mg/day, N = 3, ITT) | Partial Response, best RECIST response, n (%) (5 mg/day, N = 3, ITT) | Stable Disease, best RECIST response, n (%) (5 mg/day, N = 3, ITT) | Complete Response, best RECIST response, n (%) (10 mg/day, N = 5, ITT) | Partial Response, best RECIST response, n (%) (10 mg/day, N = 5, ITT) | Complete Response, best RECIST response, n (%) (15 mg/day, N = 3, ITT) | Partial Response, best RECIST response, n (%) (15 mg/day, N = 3, ITT) | Progressive Disease, best RECIST response, n (%) (15 mg/day, N = 3, ITT) | Complete Response, best RECIST response, n (%) (22.5 mg/day, N = 4, ITT) | Partial Response, best RECIST response, n (%) (22.5 mg/day, N = 4, ITT) | Complete Response, best RECIST response, n (%) (30 mg/day, N = 3, ITT) | Partial Response, best RECIST response, n (%) (30 mg/day, N = 3, ITT) | Progressive Disease, best RECIST response, n (%) (30 mg/day, N = 3, ITT) | Complete Response, best RECIST response, n (%) (40 mg/day, N = 4, ITT)
50.0%: Landmark Progression Free Survival Rate at 3 months (Table S6, Overall Survival) (5 mg/day, N = 3, ITT) | DCR (22.5 mg/day, N = 4, ITT) | Landmark Progression Free Survival Rate at 3 months (Table S6, Overall Survival) (22.5 mg/day, N = 4, ITT) | Landmark Progression Free Survival Rate at 6 months (Table S6, Overall Survival) (22.5 mg/day, N = 4, ITT) | Progression Free Survival Rate at 3 months (22.5 mg/day, N = 4, ITT) | Progression Free Survival Rate at 6 months (22.5 mg/day, N = 4, ITT) | Progression Free Survival Rate at 3 months (30 mg/day, N = 3, ITT) | DCR (40 mg/day, N = 4, ITT)
20.0%: DCR (10 mg/day, N = 5, ITT) | Progression Free Survival Rate at 3 months (10 mg/day, N = 5, ITT)
25.0%: Landmark Progression Free Survival Rate at 9 months (Table S6, Overall Survival) (22.5 mg/day, N = 4, ITT) | Landmark Progression Free Survival Rate at 12 months (Table S6, Overall Survival) (22.5 mg/day, N = 4, ITT) | Progression Free Survival Rate at 9 months (22.5 mg/day, N = 4, ITT) | Progression Free Survival Rate at 12 months (22.5 mg/day, N = 4, ITT) | ORR (40 mg/day, N = 4, ITT)
100.0%: DCR (15 mg/day, N = 3, ITT) | DCR (30 mg/day, N = 3, ITT)
1 (20): Stable Disease, best RECIST response, n (%) (10 mg/day, N = 5, ITT)
37.5%: Landmark Progression Free Survival Rate at 3 months (Table S6, Overall Survival) (2.5 mg/day, N = 4, ITT) | Landmark Progression Free Survival Rate at 6 months (Table S6, Overall Survival) (2.5 mg/day, N = 4, ITT) | Landmark Progression Free Survival Rate at 9 months (Table S6, Overall Survival) (2.5 mg/day, N = 4, ITT) | Landmark Progression Free Survival Rate at 12 months (Table S6, Overall Survival) (2.5 mg/day, N = 4, ITT)
1.7 months: Median progression-free survival (5 mg/day, N = 3, ITT)
25%: Patients with best response of partial response (PR) by RECIST (40 mg/day cohort, efficacy evaluable population)
4.1 months: Median progression-free survival (15 mg/day, N = 3, ITT)
2 (50): Progressive Disease, best RECIST response, n (%) (22.5 mg/day, N = 4, ITT) | Stable Disease, best RECIST response, n (%) (22.5 mg/day, N = 4, ITT)
2.6 months: Median overall survival (5 mg/day, N = 3, ITT) | Median progression-free survival (40 mg/day, N = 4, ITT)
60.0%: Landmark Progression Free Survival Rate at 3 months (Table S6, Overall Survival) (10 mg/day, N = 5, ITT) | Landmark Progression Free Survival Rate at 6 months (Table S6, Overall Survival) (10 mg/day, N = 5, ITT) | Landmark Progression Free Survival Rate at 9 months (Table S6, Overall Survival) (10 mg/day, N = 5, ITT) | Landmark Progression Free Survival Rate at 12 months (Table S6, Overall Survival) (10 mg/day, N = 5, ITT)
1.4 months: Median progression-free survival (10 mg/day, N = 5, ITT)
75.0%: Landmark Progression Free Survival Rate at 3 months (Table S6, Overall Survival) (40 mg/day, N = 4, ITT) | Landmark Progression Free Survival Rate at 6 months (Table S6, Overall Survival) (40 mg/day, N = 4, ITT) | Landmark Progression Free Survival Rate at 9 months (Table S6, Overall Survival) (40 mg/day, N = 4, ITT) | Landmark Progression Free Survival Rate at 12 months (Table S6, Overall Survival) (40 mg/day, N = 4, ITT)
1.8 months: Median progression-free survival (2.5 mg/day, N = 4, ITT)
3.4 months: Median progression-free survival (30 mg/day, N = 3, ITT)
3: Progressive Disease, best RECIST response, n (%) (2.5 mg/day, N = 4, ITT)
5.4 months: Median overall survival (22.5 mg/day, N = 4, ITT)
5.0 months: Median progression-free survival (22.5 mg/day, N = 4, ITT)
1: Partial Response, best RECIST response, n (%) (40 mg/day, N = 4, ITT)
